# Measurements published in ChEMBL document CHEMBL1140637, “QSAR modeling of matrix metalloproteinase inhibition by N-hydroxy-alpha-phenylsulfonylacetamide derivatives” (Bioorg Med Chem, 2007).
# Key:
# [1] = molecular target: T1, Interstitial collagenase (Homo sapiens) (UniProt P03956); test: Inhibition of MMP1
# T1 sequence (whole entry): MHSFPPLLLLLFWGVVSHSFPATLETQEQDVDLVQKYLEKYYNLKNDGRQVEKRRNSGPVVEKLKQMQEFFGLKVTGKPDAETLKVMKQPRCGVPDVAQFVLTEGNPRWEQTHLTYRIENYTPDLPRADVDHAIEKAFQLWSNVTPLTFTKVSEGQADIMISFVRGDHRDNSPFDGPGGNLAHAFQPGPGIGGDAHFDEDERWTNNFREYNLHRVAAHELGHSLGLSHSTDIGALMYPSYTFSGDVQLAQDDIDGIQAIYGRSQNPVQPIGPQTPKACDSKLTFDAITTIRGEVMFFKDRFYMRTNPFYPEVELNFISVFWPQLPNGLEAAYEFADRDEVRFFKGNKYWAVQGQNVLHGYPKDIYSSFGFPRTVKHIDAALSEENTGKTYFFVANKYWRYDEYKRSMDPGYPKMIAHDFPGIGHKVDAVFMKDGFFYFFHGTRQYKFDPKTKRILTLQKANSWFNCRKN
# [2] = molecular target: Matrix metalloproteinase-9 (Homo sapiens) (UniProt P14780); test: Inhibition of MMP9
# [3] = molecular target: Collagenase 3 (Homo sapiens) (UniProt P45452)
# Chain of Matrix metalloproteinase-9 (Homo sapiens) (P14780 whole entry): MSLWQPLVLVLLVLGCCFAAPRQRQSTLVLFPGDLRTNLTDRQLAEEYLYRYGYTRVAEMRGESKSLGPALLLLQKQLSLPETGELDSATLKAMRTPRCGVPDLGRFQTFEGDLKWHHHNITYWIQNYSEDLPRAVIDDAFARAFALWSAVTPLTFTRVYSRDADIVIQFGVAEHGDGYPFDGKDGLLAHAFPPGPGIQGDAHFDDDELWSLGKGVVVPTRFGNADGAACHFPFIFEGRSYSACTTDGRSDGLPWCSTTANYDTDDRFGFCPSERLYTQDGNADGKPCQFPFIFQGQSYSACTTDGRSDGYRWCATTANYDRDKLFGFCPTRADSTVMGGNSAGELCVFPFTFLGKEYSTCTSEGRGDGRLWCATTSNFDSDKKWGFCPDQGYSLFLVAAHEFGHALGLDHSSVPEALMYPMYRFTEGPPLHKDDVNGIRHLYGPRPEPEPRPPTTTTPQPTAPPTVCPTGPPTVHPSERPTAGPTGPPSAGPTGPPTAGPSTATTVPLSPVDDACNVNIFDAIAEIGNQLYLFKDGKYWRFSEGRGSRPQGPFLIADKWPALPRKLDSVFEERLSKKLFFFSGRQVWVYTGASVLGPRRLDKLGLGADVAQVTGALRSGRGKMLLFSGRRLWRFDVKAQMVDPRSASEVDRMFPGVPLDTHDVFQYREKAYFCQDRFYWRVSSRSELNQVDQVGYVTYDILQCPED
Structure (SMILES),log(10^6/IC50) [1],log(10^6/IC50) [2],log(10^6/IC50) [3]
COc1ccc(S(=O)(=O)C2(C(=O)NO)CCN(C(C)(C)C)CC2)cc1,,3.19,3.83
COc1ccc(S(=O)(=O)[C@](CCC(C)C)(Cc2cccnc2)C(=O)NO)cc1,3.24,,4.05
COc1ccc(S(=O)(=O)C2(C(=O)NO)CCN(Cc3ccc(-c4ccccc4)cc3)CC2)cc1,2.88,4.89,5.52
O=C(NO)C1(S(=O)(=O)c2ccc(-c3ccco3)cc2)CCN(Cc2ccccc2)CC1,4.4,5.52,
COc1ccc(S(=O)(=O)C2(C(=O)NO)CCN(Cc3ccccc3)CC2)cc1,3.31,5,5.7
COc1ccc(S(=O)(=O)C2(C(=O)NO)CCN(CCCOc3ccccc3)CC2)cc1,2.92,4.36,5.4
COc1ccc(S(=O)(=O)[C@](C)(Cc2ccc(OCCN3CCCCC3)cc2)C(=O)NO)cc1,3.62,5.05,
CCN1CCC(C(=O)NO)(S(=O)(=O)c2ccc(Oc3ccc(Cl)cc3)cc2)CC1,2.76,6,6
COc1ccc(S(=O)(=O)C2(C(=O)NO)CCN(Cc3ccc(C)cc3)CC2)cc1,3.31,4.77,5.7
COc1ccc(S(=O)(=O)C2(C(=O)NO)CCN(Cc3ccc(Cl)c(Cl)c3)CC2)cc1,3.35,5.22,5.7
CCCCOc1ccc(S(=O)(=O)C2(C(=O)NO)CCN(CCCC)CC2)cc1,,4.55,5.7
O=C(NO)C1(S(=O)(=O)c2ccc(Oc3ccc(Cl)cc3)cc2)CCNCC1,2.9,5.7,5.7
CCCCOc1ccc(S(=O)(=O)C2(C(=O)NO)CCN(CC)CC2)cc1,2.15,4.37,5.7
CCCCN1CCC(C(=O)NO)(S(=O)(=O)c2ccc(Oc3ccc(Cl)cc3)cc2)CC1,2.97,6,6
CCCCOc1ccc(S(=O)(=O)C2(C(=O)NO)CCN(Cc3ccc(Cl)c(Cl)c3)CC2)cc1,2.44,4.7,5.3
COc1ccc(S(=O)(=O)C2(C(=O)NO)CCN(CCOc3ccccc3)CC2)cc1,3.2,4.59,5.52
CCC(CC)COc1ccc(S(=O)(=O)C2(C(=O)NO)CCN(Cc3ccccc3)CC2)cc1,2.5,4.85,5.3
O=C(NO)C1(S(=O)(=O)c2ccc(Oc3ccc(Cl)cc3)cc2)CCN(Cc2ccccc2)CC1,3.1,6,6
COc1ccc(S(=O)(=O)C2(C(=O)NO)CCN(Cc3cccc(OC)c3)CC2)cc1,3.28,5.05,5.7
"CCN(CC)CCOc1ccc(CC(C)(C(=O)NO)S(=O)(=O)c2ccc(OC)cc2)cc1 (single isomer, unassigned)",3.5,4.89,4.82

# Further lines, results first:
log(10^6/IC50) [1],log(10^6/IC50) [2],log(10^6/IC50) [3],Structure (SMILES)
3.23,5.15,5.4,COc1ccc(S(=O)(=O)[C@](C)(Cc2ccc(OCCCN3CCN(c4cccc(Cl)c4)CC3)cc2)C(=O)NO)cc1
3.37,5.22,,COc1ccc(S(=O)(=O)C2(C(=O)NO)CCN(Cc3ccc(-c4ccccn4)cc3)CC2)cc1
2.86,4.41,5.15,C=C(C)N1CCC(C(=O)NO)(S(=O)(=O)c2ccc(OC)cc2)CC1
4.85,5.4,5.7,CCN(CC)CCOc1ccc(C[C@](C)(C(=O)NO)S(=O)(=O)c2ccc(-c3ccco3)cc2)cc1
3.52,4.8,4.92,COc1ccc(S(=O)(=O)C(C)(C/C=C/c2ccccc2)C(=O)NO)cc1 (stereo unspecified)
,5.52,,O=C(NO)C1(S(=O)(=O)c2ccc(OCc3ccccc3)cc2)CCN(Cc2ccccc2)CC1
2.42,5.3,,CCCCOc1ccc(S(=O)(=O)C2(C(=O)NO)CCN(CCCOc3ccccc3)CC2)cc1
3.62,4.96,4.85,C=C(C)[C@@](C)(C(=O)NO)S(=O)(=O)c1ccc(OC)cc1
2.82,5.52,,CCCCOc1ccc(S(=O)(=O)C2(C(=O)NO)CCN(Cc3cccc(OC)c3)CC2)cc1
3.27,4.96,5.52,COc1ccc(S(=O)(=O)C2(C(=O)NO)CCN(Cc3ccc(-c4cccs4)cc3)CC2)cc1
3.43,5.3,,COc1ccc(S(=O)(=O)C2(C(=O)NO)CCN(Cc3ccc4ccccc4c3)CC2)cc1
3.49,5.05,4.62,COc1ccc(S(=O)(=O)[C@@](C)(CC2CCCCC2)C(=O)NO)cc1
3.17,4.08,4.49,C#CC[C@](Cc1cccnc1)(C(=O)NO)S(=O)(=O)c1ccc(OC)cc1
3.18,4.8,5.7,COc1ccc(S(=O)(=O)C2(C(=O)NO)CCN(Cc3ccc(F)cc3)CC2)cc1
3.31,6,,COc1ccc(CN2CCC(C(=O)NO)(S(=O)(=O)c3ccc(Oc4ccc(Cl)cc4)cc3)CC2)cc1
3.18,4.47,5.7,COc1ccc(CCN2CCC(C(=O)NO)(S(=O)(=O)c3ccc(OC)cc3)CC2)cc1
2.47,5,5.7,CCCCOc1ccc(S(=O)(=O)C2(C(=O)NO)CCN(C)CC2)cc1
3.41,5.52,5.52,COc1ccc(S(=O)(=O)C2(C(=O)NO)CCN(Cc3ccc(OCCN4CCCCC4)cc3)CC2)cc1
3.8,4.64,,COc1ccc(S(=O)(=O)C(C)(Cc2ccc(-c3ccccc3)cc2)C(=O)NO)cc1 (stereo unspecified)
2.71,5.7,,CCCCOc1ccc(S(=O)(=O)C2(C(=O)NO)CCN(Cc3ccc(OCCN4CCCCC4)cc3)CC2)cc1
2.54,5.3,,CCCCOc1ccc(S(=O)(=O)C2(C(=O)NO)CCN(CCOc3ccccc3)CC2)cc1
2.35,3.43,4.47,COc1ccc(S(=O)(=O)C2(C(=O)NO)CCN(C(C)C)CC2)cc1
